Here are results for 16 molecules from patent US20180194762A1 (Pharmacyclics LLC, priority 2017, published 2018).

Bounds are passed on as bounds.

One assay deals with T1, TEC (Homo sapiens, UniProt P42680).
T1 sequence (P42680 1-631): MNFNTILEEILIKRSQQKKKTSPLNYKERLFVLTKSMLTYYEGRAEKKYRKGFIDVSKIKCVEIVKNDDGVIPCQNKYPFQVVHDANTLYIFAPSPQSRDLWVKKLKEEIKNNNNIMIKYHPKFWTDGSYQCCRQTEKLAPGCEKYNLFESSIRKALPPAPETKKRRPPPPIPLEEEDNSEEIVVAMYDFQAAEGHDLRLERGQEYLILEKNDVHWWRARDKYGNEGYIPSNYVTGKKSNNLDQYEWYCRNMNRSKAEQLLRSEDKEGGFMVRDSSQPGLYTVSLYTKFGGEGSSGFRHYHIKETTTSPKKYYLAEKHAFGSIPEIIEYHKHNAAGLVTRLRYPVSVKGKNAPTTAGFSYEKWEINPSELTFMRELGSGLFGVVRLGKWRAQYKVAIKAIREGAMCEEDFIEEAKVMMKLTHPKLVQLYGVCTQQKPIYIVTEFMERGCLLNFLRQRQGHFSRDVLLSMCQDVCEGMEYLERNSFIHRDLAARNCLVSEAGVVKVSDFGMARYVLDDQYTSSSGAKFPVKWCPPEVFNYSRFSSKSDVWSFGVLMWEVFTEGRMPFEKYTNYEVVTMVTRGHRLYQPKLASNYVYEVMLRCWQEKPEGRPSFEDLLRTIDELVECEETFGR
Briefly: Inhibition of a panel of kinases (in vitro HotSpot kinase assay, 33P-ATP, 1 μM ATP). To be noted: HotSpot kinase assay, 1 μM ATP. Format: biochemical. The procedure:
Example 63: Inhibition of a Panel of Kinases The degree of inhibition of a panel of kinases is determined using the in vitro HotSpot kinase assay (purified enzymes, ^33P-ATP, an appropriate substrate and 1 μM ATP).
Consider `C=CC(=O)N1CC[C@@H](Nc2n[nH]c3nccc(-c4ccnc(NC(=O)c5noc(C(C)(C)C)n5)c4C)c23)C1` [Example 288, 5-tert-butyl-N-[3-methyl-4-(3-{[(3R)-1-(prop-2-enoyl)pyrrolidin-3-yl]amino}-1H-pyrazolo[3,4-b]pyridin-4-yl)pyridin-2-yl]-1,2,4-oxadiazole-3-carboxamide], for which it took 9.68 µM to reach half-maximal inhibition (IC50).

Still in this assay, the particulars now being: ratio of TEC IC50 to Btk IC50 (selectivity).
Take `CC(C)(C)c1ccc(C(=O)Nc2cccc(-c3ccnc4[nH]nc(N[C@H]5CC[C@H](O)CC5)c34)c2)cc1` [Compound 13, 4-tert-butyl-N-[3-(3-{[(1r,4r)-4-hydroxycyclohexyl]amino}-1H-pyrazolo[3,4-b]pyridin-4-yl)phenyl]benzamide]: the TEC/Btk came to 10.
On the same count and under the same terms, the same measure for `CC(C)(C)c1ccc(C(=O)Nc2ccc(-c3ccnc4[nH]nc(N[C@H]5CC[C@H](O)CC5)c34)cc2F)cc1` [Compound 15, 4-tert-butyl-N-[2-fluoro-4-(3-{[(1r,4r)-4-hydroxycyclohexyl]amino}-1H-pyrazolo[3,4-b]pyridin-4-yl)phenyl]benzamide]: 10; for `Cc1c(NC(=O)c2ccc(C(C)(C)C)cc2)cccc1-c1ccnc2[nH]nc(N[C@H]3CC[C@H](O)CC3)c12` [Compound 14, 4-(tert-butyl)-N-(3-(3-(((1r,4r)-4-hydroxycyclohexyl)amino)-1H-pyrazolo[3,4-b]pyridin-4-yl)-2-methylphenyl)benzamide]: 10.

In another assay the target is T2, Btk (Homo sapiens, UniProt Q06187).
T2 construct: purified from insect cells as a full-length construct containing a N-terminal 6X-His tag; His6 (N); made in house; host or cells: insect cells (Method C)
T2 sequence (Q06187 whole entry): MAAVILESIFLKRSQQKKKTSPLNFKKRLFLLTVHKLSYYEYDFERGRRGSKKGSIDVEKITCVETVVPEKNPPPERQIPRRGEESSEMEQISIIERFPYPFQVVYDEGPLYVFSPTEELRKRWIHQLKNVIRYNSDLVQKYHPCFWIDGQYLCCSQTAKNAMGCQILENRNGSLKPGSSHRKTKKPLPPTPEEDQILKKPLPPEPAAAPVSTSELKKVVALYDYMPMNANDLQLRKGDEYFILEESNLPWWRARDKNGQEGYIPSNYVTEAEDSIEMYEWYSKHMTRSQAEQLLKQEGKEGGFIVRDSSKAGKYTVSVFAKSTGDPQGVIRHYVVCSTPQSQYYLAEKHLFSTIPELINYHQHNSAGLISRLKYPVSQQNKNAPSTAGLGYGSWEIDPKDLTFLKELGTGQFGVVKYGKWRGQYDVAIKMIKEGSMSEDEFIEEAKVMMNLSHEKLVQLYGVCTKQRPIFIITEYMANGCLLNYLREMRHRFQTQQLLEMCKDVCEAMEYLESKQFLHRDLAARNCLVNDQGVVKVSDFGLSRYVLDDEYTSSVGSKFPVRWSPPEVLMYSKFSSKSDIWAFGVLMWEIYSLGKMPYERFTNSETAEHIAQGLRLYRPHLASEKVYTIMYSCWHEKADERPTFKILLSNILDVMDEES
The assay is described as follows: Btk in vitro inhibitory activity (one of Method A TR-FRET, Method B electrophoretic mobility shift, Method C radiometric filter binding). As to conditions: method is one of A, B or C, not stated which; read-out: IC50 values against Btk. Format: biochemical. The protocol:
Example 62a: Btk In Vitro Inhibitory Activity (Method A)
Btk kinase activity is determined using a time-resolved fluorescence resonance energy transfer (TR-FRET) methodology. Measurements are performed in a reaction volume of 50 μL using 96-well assay plates. […] The reaction is quenched by the addition of 1.2 equivalents of EDTA (relative to divalent cation) in 25 μL of 1× Lance buffer (Perkin-Elmer). Streptavidin-APC (Perkin-Elmer) and Eu-labeled p-Tyr100 antibody (Perkin-Elmer) in 1× Lance buffer are added in a 25 μL volume to give final concentrations of 100 nM and 2.5 nM, respectively, and the mixture is allowed to incubate for one hour. The TR-FRET signal is measured on a multimode plate reader with an excitation wavelength (λEx) of 330 nm and detection wavelengths (λEm) of 615 and 665 nm. Activity is determined by the ratio of the fluorescence at 665 nm to that at 615 nm. For each compound, enzyme activity is measured at various concentrations of compound. Negative control reactions are performed in the absence of inhibitor in replicates of six, and two no-enzyme controls are used to determine baseline fluorescence levels. Inhibition constants, Ki(app), were obtained using the program BatchKi (Kuzmic et al. (2000), Anal. Biochem. 286:45-50). IC50s are obtained according to the equation:
IC50={Ki(app)/(1+[ATP]/Km^ATP)}+[E]total/2;
For all kinases, [ATP]=Km^ATP, [Btk]total=0.5 nM and [Lck]total=6 nM.
Example 62b: Btk In Vitro Inhibitory Activity (Method B)
Kinase activity is measured in vitro using electrophoretic mobility shift assay. The kinase reactions are assembled in a total volume of 25 μL in 384 well plates. The reactions comprise: BTK enzyme (1 nM, N-terminal His6-tagged, recombinant, full-length, human BTK purified from baculovirus Sf21 insect cell system, 293HEK, or other suitable source), inhibitor, ATP, fluorescently labeled peptide substrate (1 μM, FAM-GEEPLYWSFPAKKK-NH2) in a reaction buffer composed of 100 mM HEPES, pH7.5, 5 mM MgCl2 1 mM DTT, 0.1% bovine serum albumin, 0.01% Triton X-100, and 1% DMSO. The reaction is incubated and is quenched by the addition of termination buffer (100 mM HEPES, pH 7.5, 0.01% Triton X-100, 30 mM EDTA). The terminated reactions are analyzed using a 12 channel LabChip® 3000 microfluidic detection instrument (Caliper Life Sciences). The enzymatic phosphorylation of the peptide results in a change in net charge, enabling electrophoretic separation of product from substrate peptide. As substrate and product peptides are separated, two peaks of fluorescence are observed. Change in the relative fluorescence intensity of the substrate and product peaks is the parameter measured, reflecting enzyme activity. In the presence of an inhibitor, the ratio between product and substrate is altered: the signal of the product decreases, while the signal of the substrate increases.
Activity in each sample is determined as the product to sum ratio (PSR):P/(S+P), where P is the peak height of the product peptide and S is the peak height of the substrate peptide. For each compound, enzyme activity is measured at various concentrations (12 concentrations of compound spaced by 3× dilution intervals). Negative control samples (0%—inhibition in the absence of inhibitor) and positive control samples (100%—inhibition, in the presence of 20 mM EDTA) are assembled in replicates of four and are used to calculate %—inhibition values for each inhibitor at each concentration. Percent inhibition (Pinh) is determined using following equation:
Pinh=(PSR0%−PSRinh)/(PSR0%−PSR100%)*100, where PSRinh is the product sum ratio in the presence of inhibitor, PSR0% is the average product sum ration in the absence of inhibitor and PSR100% is the average product sum ratio in 100%—inhibition control samples.
The IC50 values of inhibitors are determined by 4 parameter sigmoidal dose-response model fitting of the inhibition curves (Pinh versus inhibitor concentration) using XLfit 4 software. […]
(A gel shift assay detects complexes by their altered migration in electrophoresis.)
Regarding `C=CC(=O)N1CC[C@@H](Nc2n[nH]c3nccc(-c4ccc(CNC(=O)c5ccc(C)cc5)c(F)c4)c23)C1` [Example 34, N-{[2-fluoro-4-(3-{[(3R)-1-(prop-2-enoyl)pyrrolidin-3-yl]amino}-1H-pyrazolo[3,4-b]pyridin-4-yl)phenyl]methyl}-4-methylbenzamide], the IC50 is below 10 nM.
On the same count and under the same terms, to `C=CC(=O)N1CC[C@@H](Nc2n[nH]c3nccc(-c4ccc(CNC(=O)c5ccccc5)c(F)c4)c23)C1` [Example 33, N-{[2-fluoro-4-(3-{[(3R)-1-(prop-2-enoyl)pyrrolidin-3-yl]amino}-1H-pyrazolo[3,4-b]pyridin-4-yl)phenyl]methyl}benzamide] belongs below 10 nM; to `C=CC(=O)N1CC[C@@H](Nc2n[nH]c3nccc(-c4cccc(-n5ccc6cc(C7CC7)cc(F)c6c5=O)c4CO)c23)C1` [Example 18, 6-cyclopropyl-8-fluoro-2-[2-(hydroxymethyl)-3-(3-{[(3R)-1-(prop-2-enoyl)pyrrolidin-3-yl]amino}-1H-pyrazolo[3,4-b]pyridin-4-yl)phenyl]-1,2-dihydroisoquinolin-1-one], below 10 nM; to `C=CC(=O)N1CC[C@@H](Nc2n[nH]c3nccc(-c4ccc(CNC(=O)c5ccc(C(C)(C)C)cc5)c(F)c4)c23)C1` [Example 6, 4-tert-butyl-N-{[2-fluoro-4-(3-{[(3R)-1-(prop-2-enoyl)pyrrolidin-3-yl]amino}-1H-pyrazolo[3,4-b]pyridin-4-yl)phenyl]methyl}benzamide], below 10 nM.
On the same count and under the same terms, to `CC#CC(=O)N1CC[C@@H](Nc2n[nH]c3nccc(-c4ccc(CNC(=O)c5ccc(C(C)(C)C)cc5)c(F)c4)c23)C1` [Example 7, N-{[4-(3-{[(3R)-1-(but-2-ynoyl)pyrrolidin-3-yl]amino}-1H-pyrazolo[3,4-b]pyridin-4-yl)-2-fluorophenyl]methyl}-4-tert-butylbenzamide] belongs below 10 nM; to `C=CC(=O)N1CC[C@@H](Nc2n[nH]c3nccc(-c4ccc(C5(NC(=O)c6noc(C(C)(C)C)n6)CC5)cc4)c23)C1` [Example 4, 5-tert-butyl-N-{1-[4-(3-{[(3R)-1-(prop-2-enoyl)pyrrolidin-3-yl]amino}-1H-pyrazolo[3,4-b]pyridin-4-yl)phenyl]cyclopropyl}-1,2,4-oxadiazole-3-carboxamide], below 10 nM.

The assay is the same for the next values; noted with them: wild-type Btk; read-out: Btk-WT IC50.
With `CC(C)(C)c1nc(C(=O)NCc2ccc(-c3ccnc4[nH]nc(OC5CCNC5)c34)cc2F)no1` (stereo not shown) [Example 269, 5-tert-butyl-N-[(2-fluoro-4-{3-[(pyrrolidin-3-yl)oxy]-1H-pyrazolo[3,4-b]pyridin-4-yl}phenyl)methyl]-1,2,4-oxadiazole-3-carboxamide], the IC50 was determined as 26.3 nM.
On to `CN1C[C@@H](Nc2n[nH]c3nccc(-c4ccc(CNC(=O)c5nc(C(C)(C)C)no5)c(F)c4)c23)CC1=O` [Example 392, 3-tert-butyl-N-{[2-fluoro-4-(3-{[(3S)-1-methyl-5-oxopyrrolidin-3-yl]amino}-1H-pyrazolo[3,4-b]pyridin-4-yl)phenyl]methyl}-1,2,4-oxadiazole-5-carboxamide], for which the IC50 amounted to 5.64 nM.
In the case of `CN(C)C(=O)N1CC[C@@H](Nc2n[nH]c3nccc(-c4ccc(CNC(=O)c5coc(C6CCC6)n5)c(F)c4)c23)C1` [Example 328, 2-cyclobutyl-N-{[4-(3-{[(3R)-1-(dimethylcarbamoyl)pyrroli-din-3-yl]amino}-1H-pyrazolo[3,4-b]pyridin-4-yl)-2-fluorophenyl]methyl}-1,3-oxazole-4-carboxamide], the IC50 worked out at 509 nM.
As for `CC1(C)Cc2cc3n(c2C1)CCN(c1nccc(-c2ccnc4[nH]nc(NC5CCNC5)c24)c1CO)C3=O` (stereo not shown) [Example 297, 2-[3-(hydroxymethyl)-4-{3-[(pyrrolidin-3-yl)amino]-1H-pyrazolo[3,4-b]pyridin-4-yl}pyridin-2-yl]-7,7-dimethyl-3,4,7,8-tetrahydro-2H-cyclopenta[4,5]pyrrolo[1,2-a]pyrazin-1(6H)-one], the IC50 amounted to 323 nM.
Same read-out and setting: the same measure for `C[C@H]1CC[C@@H](N)CN1c1n[nH]c2nccc(-c3ccc(CNC(=O)c4cc(C(C)(C)C)on4)c(F)c3)c12` [Example 322, N-[(4-{3-[(2S,5R)-5-amino-2-methylpiperidin-1-yl]-1H-pyrazolo[3,4-b]pyridin-4-yl}-2-fluorophenyl)methyl]-5-tert-butyl-1,2-oxazole-3-carboxamide]: 156 nM.
Same read-out and setting: to `C[C@H](NC(=O)c1noc(C(C)(C)C)n1)c1ccc(-c2ccnc3[nH]nc(N[C@@H]4CCN(C(=O)N(C)C)C4)c23)cc1F` [Example 291, 5-tert-butyl-N-{(1S)-1-[4-(3-{[(3R)-1-(dimethylcarbamoyl)pyrroli-din-3-yl]amino}-1H-pyrazolo[3,4-b]pyridin-4-yl)-2-fluorophenyl]ethyl}-1,2,4-oxadiazole-3-carboxamide] belongs 41.9 nM.

As a reminder, the IC50 is the concentration that inhibits the measured activity by half.
